ChEMBL document CHEMBL1201862, “PubChem BioAssay data set” (2004)
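Test compounds were applied to cells in 96-well plates for 48 hours at 5 doses. Here, GI50 denotes the concentration required for 50% inhibition of growth.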 The source made the active and inactive calls. No stated cut-off is given here; in the data, active = GI50 up to about 1.1 µM and inactive = higher.

Key:
Experiment in all cases: growth of human tumour cells (NCI), 48 h
SF-539 = system: SF-539
A498 = system: A498
HOP-62 = system: HOP-62
HL-60 = system: HL-60
OVCAR-3 = system: OVCAR-3
HT-29 = system: HT-29
UACC-257 = system: UACC-257
SF-295 = system: SF-295
SK-MEL-2 = system: SK-MEL-2
COLO 205 = system: COLO 205
Malme-3M = system: Malme-3M
OVCAR-5 = system: OVCAR-5
RPMI-8226 = system: RPMI-8226
M14 = system: M14
SR = system: SR
NCI-H522 = system: NCI-H522
TK-10 = system: TK-10
U-251 = system: U-251
SK-MEL-5 = system: SK-MEL-5
MDA-MB-435 = system: MDA-MB-435

Measured: GI50

C[C@]12CCC[C@H](O)[C@H]1C[C@H](CO)CC2
inactive: SF-539 > 100 µM | A498 > 100 µM | HOP-62 > 100 µM | HL-60 > 100 µM | OVCAR-3 > 100 µM | HT-29 > 100 µM | UACC-257 > 100 µM | SF-295 > 100 µM | SK-MEL-2 > 100 µM | COLO 205 > 100 µM | Malme-3M > 100 µM | OVCAR-5 > 100 µM | RPMI-8226 > 100 µM | M14 > 100 µM | SR > 100 µM | NCI-H522 > 100 µM | TK-10 > 100 µM | U-251 > 100 µM

CCC1CN2CCc3cc(OC)c(OC)cc3C2CC1CC1c2cc(OC)c(OC)cc2CCN1C(=O)C1CCCN1 (stereo not drawn)
inactive: SF-539 20.3 µM | A498 28.6 µM | HOP-62 32.5 µM | HL-60 19.3 µM | OVCAR-3 27.4 µM | HT-29 27.4 µM | UACC-257 17.2 µM | SF-295 41 µM | SK-MEL-2 27.8 µM | COLO 205 13 µM | SK-MEL-5 17.3 µM | Malme-3M 21.4 µM | OVCAR-5 53 µM | RPMI-8226 50.5 µM | M14 14.5 µM | SR 19.1 µM | NCI-H522 16.3 µM | TK-10 45.4 µM | U-251 23.9 µM

COC(=O)C(C(=O)C(=O)Nc1ccc(Br)cc1)c1nc2ccc(Cl)cc2nc1O (stereo not drawn)
inactive: SF-539 > 100 µM | A498 > 100 µM | HOP-62 > 100 µM | HL-60 > 83.2 µM | OVCAR-3 > 100 µM | HT-29 > 48 µM | UACC-257 > 100 µM | SF-295 > 100 µM | SK-MEL-2 > 100 µM | COLO 205 > 45.2 µM | SK-MEL-5 > 100 µM | Malme-3M > 100 µM | OVCAR-5 > 100 µM | RPMI-8226 > 100 µM | M14 > 100 µM | SR > 100 µM | NCI-H522 > 100 µM | TK-10 > 100 µM | U-251 > 100 µM

CCN(CC)CCNc1ccc2nc(C)n3c4ccc(O)cc4c(=O)c1c23
active: HOP-62 0.975 µM | HL-60 0.286 µM | HT-29 0.246 µM | SF-295 0.462 µM | OVCAR-5 0.479 µM | SR 0.049 µM | NCI-H522 0.179 µM | U-251 0.745 µM
inactive: SF-539 1.79 µM | A498 2.69 µM | OVCAR-3 1.97 µM | UACC-257 8.63 µM | SK-MEL-2 7.24 µM | SK-MEL-5 2.01 µM | Malme-3M 3.56 µM | RPMI-8226 2.16 µM | M14 2.99 µM

CCC(CS(=O)(=O)O)[N+](=O)[O-] (stereo not drawn)
inactive: SF-539 > 100 µM | A498 > 100 µM | HOP-62 > 100 µM | HL-60 > 100 µM | OVCAR-3 > 100 µM | HT-29 > 100 µM | UACC-257 > 100 µM | SF-295 > 100 µM | SK-MEL-2 > 100 µM | COLO 205 > 100 µM | SK-MEL-5 > 100 µM | Malme-3M > 100 µM | MDA-MB-435 > 100 µM | OVCAR-5 > 100 µM | RPMI-8226 > 100 µM | M14 > 100 µM | NCI-H522 > 100 µM | TK-10 > 100 µM | U-251 > 100 µM

O=C(c1ccccc1)c1ccc(N2C(=O)/C(=C/c3cccc(Oc4ccccc4)c3)N=C2c2ccccc2)c(N2C(=O)/C(=C/c3cccc(Oc4ccccc4)c3)N=C2c2ccccc2)c1
inactive: A498 33.1 µM | HOP-62 67.5 µM | HL-60 6.47 µM | OVCAR-3 18.9 µM | HT-29 30.9 µM | UACC-257 17.7 µM | SF-295 25 µM | SK-MEL-2 17.7 µM | COLO 205 18 µM | SK-MEL-5 13.3 µM | Malme-3M 19.5 µM | MDA-MB-435 4.72 µM | OVCAR-5 50.6 µM | RPMI-8226 19.3 µM | M14 35.7 µM | NCI-H522 11.4 µM | TK-10 25.5 µM | U-251 31.3 µM

CCO/C(=N/S(=O)(=O)C(F)(F)F)N(C(C)C)C(C)C
inactive: SF-539 47 µM | A498 > 100 µM | HL-60 > 100 µM | HT-29 > 100 µM | UACC-257 > 100 µM | SK-MEL-2 > 100 µM | COLO 205 > 100 µM | SK-MEL-5 > 100 µM | Malme-3M > 100 µM | MDA-MB-435 > 100 µM | OVCAR-5 > 100 µM | RPMI-8226 > 100 µM | M14 > 100 µM | NCI-H522 > 100 µM | TK-10 > 100 µM | U-251 > 100 µM

O=C(O)/C(Cl)=C(\Cl)C(=O)Nc1ccc(Cl)c(Cl)c1Cl
inactive: SF-539 19.1 µM | A498 28.8 µM | HOP-62 29.5 µM | HL-60 21.4 µM | OVCAR-3 19 µM | HT-29 20.3 µM | UACC-257 18.5 µM | SF-295 18.5 µM | SK-MEL-2 18.2 µM | COLO 205 20 µM | SK-MEL-5 29.4 µM | Malme-3M 19.3 µM | OVCAR-5 18.2 µM | RPMI-8226 28.9 µM | M14 18.2 µM | SR 25.1 µM | NCI-H522 10.9 µM | TK-10 16.8 µM | U-251 19.5 µM

CC1=C(C#N)C(=C(C#N)C#N)OC1(C)Cc1ccccc1 (stereo not drawn)
inactive: SF-539 64.7 µM | A498 87.7 µM | HOP-62 58.9 µM | OVCAR-3 14.6 µM | HT-29 32.7 µM | UACC-257 49.4 µM | SF-295 67.3 µM | SK-MEL-2 36.7 µM | COLO 205 21 µM | SK-MEL-5 67.8 µM | MDA-MB-435 > 100 µM | OVCAR-5 61.1 µM | RPMI-8226 42.7 µM | M14 30.8 µM | NCI-H522 14.4 µM | TK-10 36.4 µM | U-251 > 100 µM

CCOC(OCC)C(CC)[Se]c1ccccc1 (stereo not drawn)
inactive: SF-539 > 100 µM | A498 > 100 µM | HOP-62 > 100 µM | HL-60 2.42 µM | OVCAR-3 > 100 µM | HT-29 > 100 µM | UACC-257 > 100 µM | SF-295 > 100 µM | SK-MEL-2 > 100 µM | COLO 205 39.8 µM | SK-MEL-5 > 100 µM | Malme-3M 5.02 µM | OVCAR-5 > 100 µM | RPMI-8226 18.3 µM | M14 16 µM | SR 10.1 µM | NCI-H522 15.6 µM | TK-10 > 100 µM | U-251 2.25 µM

CC(C)c1cccc(C(C)C)c1NC(=O)/C(Cc1nc2ccc(Cl)cc2nc1O)=N\NC(=O)C[N+](C)(C)C
inactive: SF-539 > 100 µM | A498 > 100 µM | HOP-62 > 100 µM | HL-60 > 100 µM | OVCAR-3 > 100 µM | HT-29 > 100 µM | UACC-257 > 100 µM | SF-295 > 100 µM | SK-MEL-2 > 100 µM | COLO 205 > 100 µM | SK-MEL-5 > 100 µM | Malme-3M > 100 µM | OVCAR-5 > 100 µM | RPMI-8226 > 100 µM | M14 > 100 µM | SR > 100 µM | NCI-H522 > 100 µM | TK-10 > 100 µM

C=CCc1cc2cccc(OC)c2oc1=O
inactive: SF-539 > 100 µM | A498 > 100 µM | HOP-62 > 100 µM | HL-60 34.8 µM | OVCAR-3 > 100 µM | HT-29 > 100 µM | UACC-257 > 100 µM | SF-295 > 100 µM | SK-MEL-2 > 100 µM | COLO 205 > 100 µM | SK-MEL-5 87.3 µM | Malme-3M > 100 µM | OVCAR-5 66.1 µM | RPMI-8226 > 100 µM | M14 > 100 µM | SR 44.3 µM | NCI-H522 6.9 µM | TK-10 > 100 µM | U-251 > 100 µM

CCCCCC[C@H]([C@H](C)O)n1cnc2c(N)ncnc21
inactive: SF-539 57.4 µM | HOP-62 > 100 µM | HL-60 50.9 µM | OVCAR-3 > 100 µM | HT-29 > 100 µM | UACC-257 > 100 µM | SF-295 > 100 µM | SK-MEL-2 > 100 µM | COLO 205 > 100 µM | SK-MEL-5 > 100 µM | Malme-3M > 100 µM | MDA-MB-435 > 100 µM | OVCAR-5 > 100 µM | RPMI-8226 > 100 µM | M14 > 100 µM | SR > 100 µM | TK-10 > 100 µM | U-251 > 100 µM

O=c1[nH]ccc(CNC23CC4CC(CC(C4)C2)C3)c1O
inactive: SF-539 > 100 µM | A498 > 100 µM | HOP-62 > 100 µM | HL-60 41.3 µM | OVCAR-3 > 100 µM | HT-29 > 100 µM | UACC-257 > 100 µM | SF-295 78.2 µM | SK-MEL-2 > 100 µM | COLO 205 > 100 µM | SK-MEL-5 > 100 µM | Malme-3M > 100 µM | OVCAR-5 > 100 µM | RPMI-8226 > 100 µM | M14 > 100 µM | SR 45.2 µM | NCI-H522 24.8 µM | TK-10 > 100 µM | U-251 > 100 µM

NCCCNCCCCN1CC1
inactive: HOP-62 2.72 µM | OVCAR-3 1.6 µM | HT-29 7.05 µM | UACC-257 1.39 µM | SF-295 20 µM | SK-MEL-2 1.69 µM | SK-MEL-5 2.25 µM | Malme-3M 4.57 µM | MDA-MB-435 3.6 µM | OVCAR-5 12 µM | RPMI-8226 7.01 µM | M14 11.4 µM | NCI-H522 2.81 µM | TK-10 5.96 µM | U-251 2.84 µM
active: SF-539 0.836 µM | HL-60 0.601 µM | COLO 205 1.02 µM
